Data set [1] can be described thus: Antioxidant activity assessed as ABTS radical cation scavenging activity by measuring trolox equivalents by ABTS radical cation decolorization assay. Type of data set: functional.
A further data set deals with Human alphaherpesvirus 1. Briefly: Antiviral activity against HSV-1 infected in African green monkey Vero cells by plaque reduction assay. As to conditions: for EC50: Human alphaherpesvirus 1, Vero. The data set is classed as functional. A general note: Plaques are areas of infected cells; plaque reduction assays count them against a control.
A short description of data set [2]: Antioxidant activity assessed as DPPH radical scavenging activity at 100 ug/ml after 30 mins. Type of data set: functional. (The DPPH test is a chemical assay of radical scavenging.)
In data set [3] the test system is Bugula neritina. The experiment in a line: Antifouling activity against Bugula neritina larvae assessed as inhibition of larval settlement at 25 ug/ml after 1 hr by dissecting microscopy relative to control. The data set is classed as functional.
Data set [4] in a line: Cytotoxicity against African green monkey Vero cells assessed as reduction in cell viability by MTT assay. The data set is classed as cell-based. As to conditions: chlorocebus sabaeus. (Formazan colour is commonly taken as a measure of viable cells.)
Data set [5] in a line: Antioxidant activity assessed as DPPH radical scavenging activity after 30 mins. Type of data set: functional.
The test system of data set [6] is Bugula neritina. Briefly: Antifouling activity against Bugula neritina assessed as inhibition of larval settlement after 1 hr by dissecting microscopy. The data set is classed as functional.
The test system of data set [7] is Bugula neritina. The experiment in a line: Selectivity index, ratio of LC50 for Bugula neritina larvae to EC50 for antifouling activity against Bugula neritina larvae.

≈ marks a conversion by molar mass, not a printed value. Calls of active or inactive are those of the source. The calls are words filed in the database; no cut-off is given here. A value given as a limit tells only on which side of the number the result lay.

As to `CCCCCC(c1c(C)cc(O)cc1O)c1c(O)cc2c(c1O)C(=O)c1c(O)cc(Oc3cc(C)cc(O)c3)cc1C2=O` (stereo in doubt; (-)-6), in data set [1], the Activity was found to be 1.65 mmol/g.

For `CCCCCC(c1c(C)cc(O)cc1O)c1c(O)cc2c(c1O)C(=O)c1c(O)cc(Oc3cc(C)cc(O)c3)cc1C2=O` (racemic) [listing 1 of 2 here], the outcome in the data set on Human alphaherpesvirus 1 was inactive. The Activity in data set [2] was less than 50%; in data set [1], 2.27 mmol/g.

Consider `Cc1cc(O)cc(O)c1C(=O)O` [ORSELLINIC ACID], for which, in data set [2], the Activity was less than 50%. In the data set on Bugula neritina [3], the inhibition at 25 µg/mL was in the range of 10 to 38%.

Turning to `C[C@H](O)CC[C@H](CO)c1c(O)cc2c(c1O)C(=O)c1c(O)cc(O)cc1C2=O`, the EC50 with Human alphaherpesvirus 1 is 6.25 µM. For the same compound, the CC50 in data set [4] was determined as 50.7 µM. The Activity in data set [2] was less than 50%.

On to `CCCCCC(c1c(C)cc(Oc2cc(C)cc(O)c2)cc1O)c1c(O)cc2c(c1O)C(=O)c1c(O)cc(O)cc1C2=O` (racemic) [listing 1 of 2 here], for which, in the data set with Bugula neritina [3], the inhibition at 25 µg/mL fell in the range of 10 to 38%.

Consider `CC(=O)CC[C@H](CO)c1c(O)cc2c(c1O)C(=O)c1c(O)cc(O)cc1C2=O`, for which the result in the data set on Human alphaherpesvirus 1 was inactive. Further, in data set [2], the Activity is less than 50%. Moreover, the inhibition at 25 µg/mL in the data set with Bugula neritina [3] is 10 to 38%.

Consider `CCCCCC(c1c(C)cc(O)cc1O)c1c(O)cc2c(c1O)C(=O)c1c(O)cc(Oc3cc(C)cc(O)c3)cc1C2=O` (racemic) [listing 2 of 2 here], for which the inhibition at 25 µg/mL with Bugula neritina [3] lay in the range of 10 to 38%.

Turning to `Cc1cc(O)cc(Oc2cc(C)cc(O)c2O)c1` [CORDYOL C], in data set [2], the Activity lay in the range of 81.3 to 92.8%. Also, the IC50 in data set [5] came out at 52.3 µM. The inhibition at 25 µg/mL in the data set on Bugula neritina [3] was 10 to 38%.

For `CCCCCC(c1c(O)cc(C)cc1Oc1cc(C)cc(O)c1)c1c(O)cc2c(c1O)C(=O)c1c(O)cc(O)cc1C2=O` (racemic), in the data set with Human alphaherpesvirus 1, the result was inactive. Also, the Activity was less than 50% in data set [2] and 2.18 mmol/g in data set [1].

Regarding `Cc1cc(O)cc(OC(=O)c2c(C)cc(O)cc2O)c1` [LECANORIN], the Activity in data set [2] is less than 50%. In addition, the inhibition at 25 µg/mL with Bugula neritina [3] fell in the range of 10 to 38%.

Turning to `COC(=O)c1c(C)cc(O)cc1O` [METHYL ORSELLINATE], the Activity in data set [2] was less than 50%. Besides, the inhibition at 25 µg/mL in the data set on Bugula neritina [3] lay within 10 to 38%.

As to `Cc1cc(O)cc(O)c1` [ORCINOL], in data set [2], the Activity is less than 50%. Moreover, the inhibition at 25 µg/mL in the data set on Bugula neritina [3] was 10 to 38%.

For the compound `Cc1cc(OC(=O)c2c(C)cc(O)cc2O)cc(O)c1C(=O)O` [LECANORIC ACID], the Activity in data set [2] was less than 50%. Also, in the data set with Bugula neritina [3], the inhibition at 25 µg/mL is 10 to 38%.

As to `CC(=O)CC[C@H](COC(C)=O)c1c(O)cc2c(c1O)C(=O)c1c(O)cc(O)cc1C2=O`, the EC50 with Human alphaherpesvirus 1 turned out to be 3.12 µM. Further, the cytotoxic concentration (CC50) in data set [4] is 65.1 µM. Further, the Activity in data set [2] was less than 50%. The inhibition at 25 µg/mL in the data set with Bugula neritina [3] was in the range of 10 to 38%.

Turning to `Cc1c(O)cc(CC(=O)C[C@H](C)O)c(C=O)c1O`, in data set [2], the Activity is less than 50%. In addition, the inhibition at 25 µg/mL in the data set with Bugula neritina [3] is 72.4%. For the same compound, in the data set on Bugula neritina [6], the EC50 came to 3.4 µg/mL (≈ 13.5 µM). In addition, the “Selectivity Index” value in the data set with Bugula neritina [7] is more than 100.

Turning to `CC(=O)CCCC(c1c(C)cc(Oc2cc(C)cc(O)c2)cc1O)c1c(O)cc2c(c1O)C(=O)c1c(O)cc(O)cc1C2=O` (racemic), the EC50 with Human alphaherpesvirus 1 was 4.68 µM. For the same compound, the CC50 in data set [4] worked out at 109 µM. In addition, the results for the Activity in data set [2] and in data set [1] were less than 50% and 2.03 mmol/g, respectively.

As to `Cc1cc(O)cc(O)c1O`, in data set [2], the Activity lay within 81.3 to 92.8%. Moreover, the IC50 in data set [5] stood at 35.1 µM. Also, the inhibition at 25 µg/mL with Bugula neritina [3] lay within 10 to 38%.

Regarding `O=C1c2cc(O)cc(O)c2C(=O)c2c1cc(O)c([C@@H](CO)CCO)c2O`, the Activity in data set [2] is less than 50%. Moreover, the inhibition at 25 µg/mL with Bugula neritina [3] is 10 to 38%.

With `CCCCCC(c1c(C)cc(Oc2cc(C)cc(O)c2)cc1O)c1c(O)cc2c(c1O)C(=O)c1c(O)cc(O)cc1C2=O` (racemic) [listing 2 of 2 here], the outcome with Human alphaherpesvirus 1 was inactive. Also, the Activity is less than 50% in data set [2] and 2.11 mmol/g in data set [1].

On to `Cc1cc(O)c(O)c(Oc2cc(C)cc(O)c2Oc2cc(C)cc(O)c2O)c1`, for which the outcome in the data set on Human alphaherpesvirus 1 was inactive. In addition, in data set [2], the Activity was 81.3 to 92.8%. The IC50 in data set [5] was 21.2 µM. Further, the inhibition at 25 µg/mL with Bugula neritina [3] was determined as 80%. Moreover, in the data set on Bugula neritina [6], the EC50 was determined as 2.61 µg/mL (≈ 6.79 µM). In addition, in the data set with Bugula neritina [7], the “Selectivity Index” value is listed as more than 100.

As to `Cc1cc(O)c(Oc2cc(C)cc(Oc3cc(C)cc(O)c3O)c2O)c(O)c1`, the outcome with Human alphaherpesvirus 1 was inactive. For the same compound, the Activity in data set [2] fell in the range of 81.3 to 92.8%. The IC50 in data set [5] was determined as 18.9 µM. Besides, the inhibition at 25 µg/mL with Bugula neritina [3] was found to be 85.3%. Further, the 50% effective concentration (EC50) in the data set on Bugula neritina [6] came to 1.59 µg/mL (≈ 4.14 µM). In addition, the “Selectivity Index” value with Bugula neritina [7] is more than 100.

Turning to `CCCCCC(c1c(C)cc(Oc2cc(C)cc(O)c2)cc1O)c1c(O)cc2c(c1O)C(=O)c1c(O)cc(O)cc1C2=O` (stereo in doubt; (+)-7), the Activity in data set [1] turned out to be 2.07 mmol/g.

Turning to `O=C1O[C@H]([C@@H](O)CO)C(O)=C1O` [ASCORBIC ACID], the IC50 in data set [5] came out at 45.2 µM.

Regarding `Cc1cc(O)cc(Oc2cc(C)cc(O)c2)c1` [DIORCINOL], the Activity in data set [2] was less than 50%. In addition, the inhibition at 25 µg/mL in the data set with Bugula neritina [3] lay within 10 to 38%.

Take `COC(=O)c1c(O)ccc2oc3cc(C)cc(O)c3c(=O)c12`: in data set [2], the Activity was less than 50%. The inhibition at 25 µg/mL in the data set on Bugula neritina [3] lay in the range of 10 to 38%.

On to `COC(C)CC(=O)Cc1cc(O)c(C)c(O)c1C=O` (racemic), for which the Activity in data set [2] was less than 50%.

With `Cc1cc(O)c(Oc2cc(C)cc(O)c2O)c(O)c1`, in data set [2], the Activity was 81.3 to 92.8%. The IC50 in data set [5] was determined as 31.2 µM. In addition, in the data set with Bugula neritina [3], the inhibition at 25 µg/mL lay in the range of 10 to 38%.

As for `COC(=O)c1c(C)cc(Oc2cc(O)cc(C)c2C(=O)O)cc1O`, in data set [2], the Activity is less than 50%. The inhibition at 25 µg/mL in the data set on Bugula neritina [3] fell in the range of 10 to 38%.

With `Cc1cc(O)c(Oc2cc(C)cc(O)c2Oc2cc(C)cc(O)c2O)c(O)c1`, the result in the data set with Human alphaherpesvirus 1 was inactive. The Activity in data set [2] lay in the range of 81.3 to 92.8%. For the same compound, in data set [5], the IC50 amounted to 25.2 µM. For the same compound, in the data set on Bugula neritina [3], the inhibition at 25 µg/mL was 70.6%. Further, the EC50 with Bugula neritina [6] is 5.48 µg/mL (≈ 14.3 µM). Moreover, the “Selectivity Index” value in the data set with Bugula neritina [7] was more than 100.

Consider `Cc1c(O)cc2cc(C[C@H](C)O)oc(=O)c2c1O`, for which the Activity in data set [2] is less than 50%.

Regarding `Cc1cc(O)cc(Oc2cc(C)c(C(=O)OCC(O)CO)c(O)c2)c1` (racemic), the Activity in data set [2] was less than 50%. The inhibition at 25 µg/mL with Bugula neritina [3] came to 91.2%. Besides, the EC50 in the data set with Bugula neritina [6] worked out at 1.28 µg/mL (≈ 3.67 µM). Moreover, the “Selectivity Index” value in the data set with Bugula neritina [7] was more than 100.

`CCCCC[C@H](OC)c1c(O)cc2c(c1O)C(=O)c1c(O)cc(O)cc1C2=O`: the Activity in data set [2] was less than 50%. The inhibition at 25 µg/mL with Bugula neritina [3] was 10 to 38%.

For the compound `CCCCCC(c1c(C)cc(Oc2cc(C)cc(O)c2)cc1O)c1c(O)cc2c(c1O)C(=O)c1c(O)cc(O)cc1C2=O` (stereo in doubt; (-)-7), the Activity in data set [1] lay within 1.53 to 2 mmol/g.

With `Nc1nc2c(ncn2COCCO)c(=O)[nH]1` [ACYCLOVIR], a half-maximal effect in the data set on Human alphaherpesvirus 1 (EC50) was put at 3 µM. Also, in data set [4], the CC50 was more than 1000 µM.

With `C[C@]12CCC[C@@H](O1)c1c(cc3c(c1O)C(=O)c1c(O)cc(O)cc1C3=O)O2`, the Activity in data set [2] is less than 50%. The inhibition at 25 µg/mL with Bugula neritina [3] was 10 to 38%.

One may read the inhibition as the change of the read-out against control, counted positive when it falls. As a reminder, the EC50 is the concentration at which the effect is half-maximal. As usually defined, the CC50 is the concentration giving 50% cytotoxicity. The term IC50 denotes the concentration needed to halve the response being measured.

Values taken from ChEMBL document CHEMBL4000243, “Anti-HSV-1, antioxidant and antifouling phenolic compounds from the deep-sea-derived fungus Aspergillus versicolor SCSIO 41502” (Bioorg Med Chem Lett, 2017).
